Assay results published in patent US20190060428A1, “FORMULATIONS FOR NEOPLASIA VACCINES AND METHODS OF PREPARING THEREOF” (The Broad Institue Inc., priority 2015, published 2019).

Columns and labels:
Type in all cases: physicochemical
[1] = Peptide diluent matrix (precipitation of DMSO dissolved peptides in various liquids); parameters: key to Precipitation in diluent: Liposome / Precipitation in diluent: PBS pH 7.4 / Precipitation in diluent: Water / Precipitation in diluent: 10% Sucrose / Precipitation in diluent: D5W (5% Dextrose USP Grade Inj): P = precipitation; NP = no precipitation
Procedure: Additional peptide solubility conditions were tested. Peptides CS6709, CS6712, CS6720, CS6726, and CS6783 were weighed at approximately 10 mg each. The peptides were then dissolved in approximately 200 μL USP grade DMSO to obtain a 50 mg/mL concentration for each peptide. […] The sample appeared to be cloudy. Additional 50 μL increments of DMSO were added to Peptide CS6709 up to 400 μL; for a total of 600 μL of DMSO. […] To dilute the peptides to 400 μg, a PBS pH 7.4 solution without potassium was prepared. All 5 DMSO peptide samples (50 mg/mL) were placed in a single vial for dilution to 400 μg/mL. Each DMSO peptide was added to the vial at 40 μL, except for CS6709 which was at a concentration of 16.67 mg/mL. The volume of CS6709 added to the single vial was 120 μL. The samples were diluted to 400 μg by adding 4.72 mL PBS pH 7.4. Upon addition of the PBS pH 7.4, it was observed that one or more of the peptides had precipitated out. To determine which of the peptides precipitated, Applicants followed the matrix in Table 5 below using very small amounts (10-20 μL) of the DMSO dissolved peptides and adding these peptides to the various liquids.

[2] = Solubility of peptides in DMSO (50 mg/ml)
Procedure: The only problematic peptides are very hydrophobic peptides. Additional peptide solubility conditions were tested. Peptides CS6709, CS6712, CS6720, CS6726, and CS6783 were weighed at approximately 10 mg each. The peptides were then dissolved in approximately 200 μL USP grade DMSO to obtain a 50 mg/mL concentration for each peptide. […] The sample appeared to be cloudy. Additional 50 μL increments of DMSO were added to Peptide CS6709 up to 400 μL; for a total of 600 μL of DMSO.

[3] = Direct dissolution of peptides in D5W without DMSO; settings: <1 mg peptide

## H-LTDLPGRIRVAPQQNDLDSPQQISISNAE-OH [CS6709]
[1]; 10-20 μL DMSO dissolved peptide added to 10% Sucrose
  Precipitation in diluent: 10% Sucrose: NP
[1]; 10-20 μL DMSO dissolved peptide added to D5W
  Precipitation in diluent: D5W (5% Dextrose USP Grade Inj): NP
[1]; 10-20 μL DMSO dissolved peptide added to Liposome
  Precipitation in diluent: Liposome: NP
[1]; 10-20 μL DMSO dissolved peptide added to PBS pH 7.4
  Precipitation in diluent: PBS pH 7.4: NP
[1]; 10-20 μL DMSO dissolved peptide added to Water
  Precipitation in diluent: Water: NP
[2]
  Concentration at which peptide went into solution (clear) in DMSO: 16670 µg/mL
[2]; 10.02 mg in 200 μL DMSO
  Dissolution in DMSO at 50 mg/mL: did not fully dissolve
[3]
  Dissolution directly in D5W without using DMSO: could be dissolved directly in D5W
